This note sets out measurements from ChEMBL document CHEMBL1124909 (J Med Chem, 1990).

What all share (type): functional
What all share (details): 720 h

The subject of test [1] is Mus musculus. Description: The percentage 30-day survival of the mice at 600 mg/kg dose, with the radiation dose of 10 GY.
The test system of test [2] is Mus musculus. The test is described as follows: The percentage 30-day survival of the mice at 150 mg/kg dose, with the radiation dose of 10 Gy.
The subject of test [3] is Mus musculus. Description: The percentage 30-day survival of the mice at 75 mg/kg dose, with the radiation dose of 10 Gy.
Test [4] relates to Mus musculus. Description: The percentage 30-day survival of the mice at 300 mg/kg dose, with the radiation dose of 10 GY.

In the test with Mus musculus [1], `NCCCNCCSP(=O)(O)O` [AMIFOSTINE] registered a survival at 600 mg/kg of 100%. The survival at 150 mg/kg in the test on Mus musculus [2] stood at 40%. For the same molecule, the survival at 75 mg/kg with Mus musculus [3] is 40%. Moreover, the survival at 300 mg/kg in the test on Mus musculus [4] is 100%.
